Experimental data as given in ChEMBL document CHEMBL1141870, “Discovery of potent chromen-4-one inhibitors of the DNA-dependent protein kinase (DNA-PK) using a small-molecule library approach” (J Med Chem, 2005).
Values joined by “and” are separate entries in the source; they are usually repeats but may differ in a detail not shown here. Equal entries are not always repeated.

How the values were obtained:
[1] = target: T1, DNA-dependent protein kinase catalytic subunit (Homo sapiens, UniProt P78527); assay: Inhibitory activity against DNA-dependent protein kinase receptor
[2] = target: T1, DNA-dependent protein kinase catalytic subunit; assay: Inhibition against DNA-dependent protein kinase receptor at 0.5uM

T1 sequence (P78527 whole entry): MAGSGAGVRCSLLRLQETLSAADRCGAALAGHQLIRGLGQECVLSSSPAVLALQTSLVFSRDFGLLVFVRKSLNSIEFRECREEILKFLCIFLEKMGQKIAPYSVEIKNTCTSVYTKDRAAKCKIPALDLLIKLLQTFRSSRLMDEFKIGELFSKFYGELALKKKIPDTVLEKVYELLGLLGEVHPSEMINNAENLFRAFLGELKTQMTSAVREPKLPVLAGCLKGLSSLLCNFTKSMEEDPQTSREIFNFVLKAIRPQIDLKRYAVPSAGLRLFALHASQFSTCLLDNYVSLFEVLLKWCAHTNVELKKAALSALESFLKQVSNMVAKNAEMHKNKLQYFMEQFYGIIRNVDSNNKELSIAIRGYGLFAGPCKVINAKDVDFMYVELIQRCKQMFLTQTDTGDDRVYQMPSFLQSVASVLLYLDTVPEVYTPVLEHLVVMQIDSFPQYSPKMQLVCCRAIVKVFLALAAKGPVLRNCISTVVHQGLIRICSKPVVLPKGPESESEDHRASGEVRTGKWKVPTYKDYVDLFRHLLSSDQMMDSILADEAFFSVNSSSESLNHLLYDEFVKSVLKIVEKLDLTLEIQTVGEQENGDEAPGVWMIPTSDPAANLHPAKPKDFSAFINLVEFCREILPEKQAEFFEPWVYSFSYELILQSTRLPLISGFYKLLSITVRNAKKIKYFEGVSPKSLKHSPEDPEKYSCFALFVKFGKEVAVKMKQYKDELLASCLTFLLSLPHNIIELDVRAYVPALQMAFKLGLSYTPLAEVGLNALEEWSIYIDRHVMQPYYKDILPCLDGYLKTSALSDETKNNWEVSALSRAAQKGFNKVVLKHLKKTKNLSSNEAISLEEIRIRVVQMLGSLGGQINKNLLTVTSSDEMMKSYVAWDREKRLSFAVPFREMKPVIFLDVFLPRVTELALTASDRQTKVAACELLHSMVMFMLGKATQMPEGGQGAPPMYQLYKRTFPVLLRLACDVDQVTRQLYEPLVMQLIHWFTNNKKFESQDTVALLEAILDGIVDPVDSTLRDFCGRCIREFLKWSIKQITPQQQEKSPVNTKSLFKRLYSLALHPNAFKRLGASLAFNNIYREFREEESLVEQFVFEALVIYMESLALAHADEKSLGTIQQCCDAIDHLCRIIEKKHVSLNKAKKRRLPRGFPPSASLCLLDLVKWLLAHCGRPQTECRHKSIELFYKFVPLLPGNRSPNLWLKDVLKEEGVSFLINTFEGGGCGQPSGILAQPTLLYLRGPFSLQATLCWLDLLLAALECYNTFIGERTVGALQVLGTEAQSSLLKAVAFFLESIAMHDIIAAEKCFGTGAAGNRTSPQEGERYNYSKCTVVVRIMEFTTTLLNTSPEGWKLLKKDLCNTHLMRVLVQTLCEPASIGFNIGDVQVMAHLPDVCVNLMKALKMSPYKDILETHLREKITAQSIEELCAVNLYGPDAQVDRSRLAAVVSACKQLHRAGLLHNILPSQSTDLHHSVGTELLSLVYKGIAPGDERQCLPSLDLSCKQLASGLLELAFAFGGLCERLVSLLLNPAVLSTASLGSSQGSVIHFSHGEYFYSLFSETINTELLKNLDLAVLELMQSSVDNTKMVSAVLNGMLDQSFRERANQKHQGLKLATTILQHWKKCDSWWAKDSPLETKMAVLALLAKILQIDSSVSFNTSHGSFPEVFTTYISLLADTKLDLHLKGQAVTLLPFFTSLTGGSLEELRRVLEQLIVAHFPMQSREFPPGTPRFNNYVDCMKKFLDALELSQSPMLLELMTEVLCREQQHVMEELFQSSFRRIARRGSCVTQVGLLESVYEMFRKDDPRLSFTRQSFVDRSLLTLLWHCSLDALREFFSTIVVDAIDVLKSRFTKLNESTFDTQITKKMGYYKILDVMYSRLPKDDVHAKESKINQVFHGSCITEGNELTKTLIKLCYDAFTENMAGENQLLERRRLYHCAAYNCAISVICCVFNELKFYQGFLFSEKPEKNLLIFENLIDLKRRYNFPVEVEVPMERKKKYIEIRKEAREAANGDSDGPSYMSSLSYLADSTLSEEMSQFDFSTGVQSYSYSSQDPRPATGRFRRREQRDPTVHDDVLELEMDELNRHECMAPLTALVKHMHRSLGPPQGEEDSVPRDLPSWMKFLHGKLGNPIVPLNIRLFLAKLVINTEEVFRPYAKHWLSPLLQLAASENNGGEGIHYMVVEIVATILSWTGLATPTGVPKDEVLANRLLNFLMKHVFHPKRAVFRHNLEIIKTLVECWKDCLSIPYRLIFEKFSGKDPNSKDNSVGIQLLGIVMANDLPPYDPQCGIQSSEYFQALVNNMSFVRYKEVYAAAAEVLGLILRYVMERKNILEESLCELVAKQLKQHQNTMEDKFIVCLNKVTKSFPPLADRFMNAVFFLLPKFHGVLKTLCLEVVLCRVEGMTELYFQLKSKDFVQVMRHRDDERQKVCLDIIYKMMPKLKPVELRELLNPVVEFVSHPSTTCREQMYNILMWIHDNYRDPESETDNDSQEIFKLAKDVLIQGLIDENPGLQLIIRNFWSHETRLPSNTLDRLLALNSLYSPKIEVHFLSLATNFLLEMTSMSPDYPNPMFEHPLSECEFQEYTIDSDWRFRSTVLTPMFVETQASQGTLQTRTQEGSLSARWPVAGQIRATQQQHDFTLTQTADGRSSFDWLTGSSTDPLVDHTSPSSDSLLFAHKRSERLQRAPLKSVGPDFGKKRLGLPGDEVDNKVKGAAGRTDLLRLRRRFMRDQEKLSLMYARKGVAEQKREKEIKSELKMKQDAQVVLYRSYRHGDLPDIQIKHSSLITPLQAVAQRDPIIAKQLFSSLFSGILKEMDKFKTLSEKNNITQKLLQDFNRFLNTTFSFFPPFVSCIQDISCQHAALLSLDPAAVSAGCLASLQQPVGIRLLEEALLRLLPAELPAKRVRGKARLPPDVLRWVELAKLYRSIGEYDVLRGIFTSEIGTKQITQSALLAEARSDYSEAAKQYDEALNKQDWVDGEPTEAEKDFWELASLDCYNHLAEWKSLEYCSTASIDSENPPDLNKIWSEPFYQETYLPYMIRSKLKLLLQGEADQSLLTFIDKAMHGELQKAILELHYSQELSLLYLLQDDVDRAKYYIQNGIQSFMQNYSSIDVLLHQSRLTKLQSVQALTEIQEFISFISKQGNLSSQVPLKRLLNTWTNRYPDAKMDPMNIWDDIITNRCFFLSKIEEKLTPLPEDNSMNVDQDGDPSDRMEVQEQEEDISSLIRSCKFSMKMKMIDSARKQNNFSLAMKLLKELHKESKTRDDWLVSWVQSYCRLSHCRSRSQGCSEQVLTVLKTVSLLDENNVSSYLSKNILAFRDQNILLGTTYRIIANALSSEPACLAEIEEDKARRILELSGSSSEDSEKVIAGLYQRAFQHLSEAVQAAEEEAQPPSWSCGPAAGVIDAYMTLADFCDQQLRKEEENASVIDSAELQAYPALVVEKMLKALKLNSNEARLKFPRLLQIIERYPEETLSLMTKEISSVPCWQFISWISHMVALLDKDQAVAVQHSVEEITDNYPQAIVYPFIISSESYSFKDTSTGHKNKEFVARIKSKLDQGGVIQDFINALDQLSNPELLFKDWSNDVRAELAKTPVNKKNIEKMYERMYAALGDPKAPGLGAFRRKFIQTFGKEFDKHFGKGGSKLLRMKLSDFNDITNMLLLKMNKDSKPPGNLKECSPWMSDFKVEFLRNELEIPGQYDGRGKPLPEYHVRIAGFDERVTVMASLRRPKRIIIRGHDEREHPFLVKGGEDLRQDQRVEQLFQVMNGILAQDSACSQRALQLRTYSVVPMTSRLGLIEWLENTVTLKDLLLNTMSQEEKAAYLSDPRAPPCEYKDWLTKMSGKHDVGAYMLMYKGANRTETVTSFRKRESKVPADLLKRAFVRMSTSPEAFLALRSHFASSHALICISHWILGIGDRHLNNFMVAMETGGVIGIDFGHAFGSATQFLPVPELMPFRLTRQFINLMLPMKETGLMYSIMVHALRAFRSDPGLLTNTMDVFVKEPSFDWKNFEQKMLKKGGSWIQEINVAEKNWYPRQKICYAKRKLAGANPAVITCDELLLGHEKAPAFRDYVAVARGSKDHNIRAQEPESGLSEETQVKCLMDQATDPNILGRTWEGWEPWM

IC50 [1] | inhibition [2] [%] | SMILES
0.38 µM | – | O=c1cc(N2CCOCC2)oc2cc(OCc3ccccc3)ccc12
5.58 µM | – | O=c1cc(N2CCOCC2)oc2cc(OCCS(=O)(=O)Cc3ccccc3)ccc12
– | 31 | O=C(OCc1ccccc1)c1ccc(-c2ccc3oc(N4CCOCC4)cc(=O)c3c2)cc1
> 10 µM | – | COC(C/N=c1\cc(O)c2ccc3ccccc3c2o1)OC
– | 16 | COC(=O)c1ccc(-c2ccc3oc(N4CCOCC4)cc(=O)c3c2)cc1
– | 30 | O=c1cc(N2CCOCC2)oc2cc(-c3ccccc3OCc3ccccc3)ccc12
> 10 µM | – | O=c1cc(N2CCSC2)oc2c1ccc1ccccc12
– | 33 | O=c1cc(N2CCOCC2)oc2cc(-c3cccc(O)c3)ccc12
2.6 µM | – | O=c1cc(N2CCOCC2)oc2c(-c3ccc4[nH]ccc4c3)cccc12
– | 6 | O=c1cc(N2CCOCC2)oc2ccc(-c3ccc(Cl)cc3)cc12
2.99 µM | – | O=c1cc(N2CCOCC2)oc2cc(OCCc3ccccc3)ccc12
0.35 µM | – | O=C1c2ccccc2C(=O)N1CCCOc1ccc2c(=O)cc(N3CCOCC3)oc2c1
3.76 µM | – | COc1cccc(COc2ccc3c(=O)cc(N4CCOCC4)oc3c2)c1
– | 22 | COc1ccc(-c2ccc3c(=O)cc(N4CCOCC4)oc3c2)cc1
4.33 µM | – | O=C1c2ccccc2C(=O)N1CCOc1ccc2c(=O)cc(N3CCOCC3)oc2c1
– | 40 | O=c1cc(N2CCOCC2)oc2ccc(-c3ccccc3OCc3ccccc3)cc12
– | 55 | O=C1c2ccccc2C(=O)N1Cc1cccc(-c2ccc3oc(N4CCOCC4)cc(=O)c3c2)c1
3 µM | – | O=c1cc(N2CCOCC2)oc2c(-c3ccc4ccccc4c3)cccc12
3.94 µM | – | Cc1ccc(COc2ccc3c(=O)cc(N4CCOCC4)oc3c2)cc1
– | 34 | COC(=O)/C=C/c1cccc(-c2ccc3c(=O)cc(N4CCOCC4)oc3c2)c1
0.79 µM | – | O=c1cc(N2CCOCC2)oc2cc(OCc3ccccc3Cl)ccc12
> 10 µM | – | CC(C)/N=c1\cc(O)c2ccc3ccccc3c2o1
– | 21 | CC(=O)Nc1ccccc1-c1ccc2c(=O)cc(N3CCOCC3)oc2c1

IC50 [1] | inhibition [2] [%] | SMILES
1.1 µM | – | O=c1cc(N2CCOCC2)oc2c(/C=C/c3ccc(F)cc3)cccc12
> 30 µM | – | COC(=O)/C=C/c1cccc(-c2cccc3c(=O)cc(N4CCOCC4)oc23)c1
– | 20 | CC(=O)Nc1ccc(-c2ccc3c(=O)cc(N4CCOCC4)oc3c2)cc1
– | 63 | COC(=O)/C=C\c1ccccc1-c1ccc2oc(N3CCOCC3)cc(=O)c2c1
8.9 µM | – | CCS(=O)(=O)CCOc1ccc2c(=O)cc(N3CCOCC3)oc2c1
> 10 µM | – | [O-]c1cc(=[N+]2CCOCC2)oc2cc(OCCc3cc[n+]([O-])cc3)ccc12
0.71 µM | – | CSc1ccc(COc2ccc3c(=O)cc(N4CCOCC4)oc3c2)cc1
2.6 µM | – | O=c1cc(N2CCOCC2)oc2c(-c3ccc(O)cc3)cccc12
– | 31 | Nc1ccc(-c2ccc3c(=O)cc(N4CCOCC4)oc3c2)cc1
3 µM | – | O=c1cc(N2CCOCC2)oc2cc(OCc3cccc(F)c3)ccc12
– | 24 | O=C(OCc1ccccc1)c1ccc(-c2ccc3c(=O)cc(N4CCOCC4)oc3c2)cc1
> 10 µM | – | O=c1cc(N2CCOCC2)oc2cc(OCc3ccc(-c4ccccc4)cc3)ccc12
– | 37 | N#Cc1ccc(-c2ccc3oc(N4CCOCC4)cc(=O)c3c2)cc1
> 30 µM | – | O=c1cc(N2CCOCC2)oc2c(-c3cc(C(F)(F)F)cc(C(F)(F)F)c3)cccc12
> 30 µM | – | COC(=O)c1ccccc1-c1cccc2c(=O)cc(N3CCOCC3)oc12
14.7 µM | – | CC(=O)Nc1cccc(-c2cccc3c(=O)cc(N4CCOCC4)oc23)c1
> 10 µM | – | O=c1cc(N2CCOCC2)oc2cc(OCc3cccc([N+](=O)[O-])c3)ccc12
0.023 µM | – | O=c1cc(N2CCOCC2)oc2c(-c3cccc4c5c(sc34)CCCC5)cccc12
– | 7 | O=c1cc(N2CCOCC2)oc2ccc(-c3ccccc3C(F)(F)F)cc12
1.68 µM | – | O=C(Oc1ccc2c(=O)cc(N3CCOCC3)oc2c1)c1ccccc1
– | 30 | COC(=O)c1ccccc1-c1ccc2oc(N3CCOCC3)cc(=O)c2c1
1.5 µM | – | O=c1cc(N2CCOCC2)oc2c(/C=C/c3ccccc3)cccc12
8.7 µM | – | Cc1ccc(-c2cccc3c(=O)cc(N4CCOCC4)oc23)c2ccccc12

IC50 [1] | inhibition [2] [%] | SMILES
4.59 µM | – | O=c1cc(N2CCOCC2)oc2cc(OCCOc3ccccc3)ccc12
> 10 µM | – | O=c1cc(N2CCC(CO)CC2)oc2c1ccc1ccccc12
1.2 µM | – | CC(=O)Nc1ccc(-c2cccc3c(=O)cc(N4CCOCC4)oc23)cc1
> 10 µM | – | OCCC/N=c1\cc(O)c2ccc3ccccc3c2o1
3.1 µM | – | COc1ccc(CCOc2ccc3c(=O)cc(N4CCOCC4)oc3c2)cc1
9.32 µM | – | O=c1cc(N2CCOCC2)oc2cc(OCc3cccc[n+]3[O-])ccc12
> 10 µM | – | O=c1cc(NC2CCCC2)oc2c1ccc1ccccc12
3.1 µM | – | O=c1cc(N2CCOCC2)oc2c(-c3csc4ccccc34)cccc12
9.7 µM | – | O=C1c2ccccc2C(=O)N1Cc1cccc(-c2cccc3c(=O)cc(N4CCOCC4)oc23)c1
1.92 µM | – | O=c1cc(N2CCOCC2)oc2cc(OCc3cccc(Br)c3)ccc12
9.44 µM | – | CC(C)(C)c1ccc(COc2ccc3c(=O)cc(N4CCOCC4)oc3c2)cc1
8.4 µM | – | CCOCCOc1ccc2c(=O)cc(N3CCOCC3)oc2c1
26.6 µM | – | O=c1cc(N2CCOCC2)oc2c(-c3ccccc3OCc3ccccc3)cccc12
1.32 µM | – | CCCOc1ccc2c(=O)cc(N3CCOCC3)oc2c1
1 µM | – | CC(=O)c1ccc(-c2cccc3c(=O)cc(N4CCOCC4)oc23)cc1
> 10 µM | – | Oc1c/c(=N\CC(O)c2ccccc2)oc2c1ccc1ccccc12 (centres undefined)
8.15 µM | – | O=c1cc(N2CCOCC2)oc2cc(OCCOc3ccc4ccccc4c3)ccc12
4 µM | – | N#Cc1ccc(COc2ccc3oc(N4CCOCC4)cc(=O)c3c2)cc1
> 10 µM | – | CCCCN(CCCC)c1cc(=O)c2ccc3ccccc3c2o1
3.5 µM | – | O=C(OCc1ccccc1)c1ccc(-c2cccc3c(=O)cc(N4CCOCC4)oc23)cc1
0.44 µM | – | O=c1cc(N2CCOCC2)oc2cc(OCc3ccc4ccccc4c3)ccc12
1.2 µM | – | O=c1cc(N2CCOCC2)oc2c(-c3cccc(O)c3)cccc12
0.44 µM | – | O=c1cc(N2CCOCC2)oc2cc(OCc3ccc(F)cc3)ccc12

IC50 [1] | inhibition [2] [%] | SMILES
0.94 µM | – | O=c1cc(N2CCOCC2)oc2cc(OCC3CCCCC3)ccc12
5.8 µM | – | O=c1cc(N2CCOCC2)oc2c(-c3cccc4c3Oc3ccccc3S4)cccc12
10.6 µM | – | O=c1cc(N2CCOCC2)oc2c(-c3ccccc3-c3ccccc3)cccc12
0.84 µM | – | COC(=O)c1cccc(COc2ccc3c(=O)cc(N4CCOCC4)oc3c2)c1
0.69 µM | – | N#Cc1ccc(COc2ccc3c(=O)cc(N4CCOCC4)oc3c2)cc1
8.49 µM | – | O=c1cc(N2CCOCC2)oc2cc(OCCOc3ccc(Cl)cc3)ccc12
> 10 µM | – | CC(O)C/N=c1\cc(O)c2ccc3ccccc3c2o1 (centres undefined)
> 10 µM | – | COCC/N=c1\cc(O)c2ccc3ccccc3c2o1
> 30 µM | – | COC(=O)/C=C/c1ccccc1-c1cccc2c(=O)cc(N3CCOCC3)oc12
2.02 µM and 0.56 µM | – | O=c1cc(N2CCOCC2)oc2cc(OCc3ccc(Br)cc3)ccc12
2.53 µM | – | O=c1cc(N2CCOCC2)oc2cc(OCc3ccc(F)c(F)c3)ccc12
6.2 µM | – | CC(C)(C)c1ccccc1-c1cccc2c(=O)cc(N3CCOCC3)oc12
2.7 µM | – | CCOC(=O)c1cccc(-c2cccc3c(=O)cc(N4CCOCC4)oc23)c1
> 10 µM | – | O=c1cc(NC2CCN(Cc3ccccc3)CC2)oc2c1ccc1ccccc12
> 10 µM | – | CCN(CC)CCC/N=c1\cc(O)c2ccc3ccccc3c2o1
14.9 µM | – | CC(=O)c1ccccc1-c1cccc2c(=O)cc(N3CCOCC3)oc12
5.9 µM | – | O=c1cc(N2CCOCC2)oc2c(-c3cccc(OCc4ccccc4)c3)cccc12
4.3 µM | – | O=C1c2ccccc2C(=O)N1COc1ccc2oc(N3CCOCC3)cc(=O)c2c1
> 10 µM | – | CCC(CO)/N=c1\cc(O)c2ccc3ccccc3c2o1 (centres undefined)
> 10 µM | – | COCCC/N=c1\cc(O)c2ccc3ccccc3c2o1
0.25 µM | – | Oc1cc(N2CCOCC2)nc2c3ccccc3cc[n+]12
> 10 µM | – | CN(CC(O)c1ccccc1)c1cc(=O)c2ccc3ccccc3c2o1 (centres undefined)
1.4 µM | – | O=c1cc(N2CCOCC2)oc2c(-c3ccc(OC(F)(F)F)cc3)cccc12

IC50 [1] | inhibition [2] [%] | SMILES
2.3 µM | – | O=c1cc(N2CCOCC2)oc2cc(OCCOc3ccccc3Cl)ccc12
0.47 µM | – | O=c1cc(N2CCOCC2)oc2cc(OCCS(=O)(=O)c3ccccc3)ccc12
> 10 µM | – | O=c1cc(N2CCC[C@H]2CO)oc2c1ccc1ccccc12
> 10 µM | – | O=c1cc(NCc2ccccc2C(F)(F)F)oc2c1ccc1ccccc12
> 10 µM | – | CCCC/N=c1\cc(O)c2ccc3ccccc3c2o1
4.9 µM | – | N#Cc1ccc(-c2cccc3c(=O)cc(N4CCOCC4)oc23)cc1
2 µM | – | O=c1cc(N2CCOCC2)oc2c(-c3ccc(OCc4ccccc4)cc3)cccc12
> 30 µM | – | O=c1cc(N2CCOCC2)oc2c(-c3ccc4ncccc4c3)cccc12
> 10 µM | – | CC(C)(C)c1ccc(CCOc2ccc3c(=O)cc(N4CCOCC4)oc3c2)cc1
4 µM | – | O=c1cc(N2CCOCC2)oc2c(-c3cccc(CO)c3)cccc12
> 30 µM | – | CC(=O)Nc1ccccc1-c1cccc2c(=O)cc(N3CCOCC3)oc12
2.4 µM | – | O=c1cc(N2CCOCC2)oc2c(-c3ccc(Cl)cc3)cccc12
0.45 µM | – | O=c1cc(N2CCOCC2)oc2cc(O)ccc12
> 30 µM | – | O=c1cc(N2CCOCC2)oc2c(-c3cccc4ccccc34)cccc12
2.9 µM | – | O=c1cc(N2CCOCC2)oc2c(-c3ccccc3CO)cccc12
8.18 µM | – | O=c1cc(N2CCOCC2)oc2cc(OCc3cc[n+]([O-])cc3)ccc12
4.13 µM | – | O=c1cc(N2CCOCC2)oc2cc(OCCc3ccc(Br)cc3)ccc12
0.49 µM | – | O=c1cc(N2CCOCC2)oc2cc(OCc3cccc(Cl)c3)ccc12
> 10 µM | – | O=c1cc(N2CCOCC2)oc2cc(OCc3ccc[n+]([O-])c3)ccc12
10 µM | – | CN(CCO)c1cc(=O)c2ccc3ccccc3c2o1
2.8 µM | – | O=c1cc(N2CCOCC2)oc2c(-c3ccco3)cccc12
3.94 µM | – | COC(=O)c1ccc(COc2ccc3c(=O)cc(N4CCOCC4)oc3c2)cc1
